According to patent US9522908B2, “Ezrin inhibitors and methods of making and using” (Georgetown University, priority 2010, dated 2016):

Legend:
K12 cells = assay: Invasion of HUVEC monolayer by K12 cells (ECIS, xCELLigence); assay type: cell-based
Description: (§1) FIG. 3 illustrates NSC305787 and NSC668394 inhibit ezrin mediated invasion of OS cells. (A) Endogenous ezrin protein levels in K12 and K7M2 cells are shown. Equal loading is determined by blotting with an actin antibody. […] Error bars represent standard deviation from duplicate data points. The experiments were performed in duplicates. Cell index is a measurement parameter with no units. In this assay a decrease in cell index represents invasion of HUVEC layer by OS cells. It is measured according to the following formula: Cell index=((Rt−R0)/F where, Rt is resistance at time point t, R0 is background resistance (measured with media alone, no cells), and F is frequency at which measurement is taken (10 kHz).
(§2) The anti-invasive potential of NSC305787 and NSC668394 were evaluated by using electric cell impedance sensing (ECIS) on a Roche xCELLigence system (Roche, Indianapolis, Ind.). Briefly, HUVEC cells (25,000/well) were seeded in a 96-well plate in EGM-2 media (Lonza, Basel, CH). Following formation of a confluent HUVEC monolayer (app 32 hrs), EGM-2 media was aspirated and a layer of OS cells (10,000 cells/well) was added in DMEM media containing the compounds. This time point was accepted as 0 hr of treatment and invasion was monitored during the following 6 hrs by measuring changes in resistance at the cell-electrode interphase.

K7M2 cells = assay: Invasion of HUVEC monolayer by K7M2 cells (ECIS, xCELLigence); assay type: cell-based; details: 1 μM and 10 μM, vs control 1% DMSO
Description: as §1, §2

## OC(c1cc(C23CC4CC(CC(C4)C2)C3)nc2c(Cl)cc(Cl)cc12)C1CCCCN1 (stereo not drawn) [NSC305787]
K12 cells; 1 μM
  invasion of K12 cells: did not have any effect
K12 cells; 10 μM
  invasion of K12 cells: did not have any effect
K7M2 cells
  invasion of K7M2 cells through HUVEC monolayer: inhibited invasion
